In the assay the test system is VEGF-induced HUVEC proliferation. The assay is described as follows: VEGF-induced HUVEC proliferation reaction evaluation system (cell proliferation inhibitory action test, WST-8). The assay is classed as cell-based, human. The following applies: HUVEC 2×10^3 cells per well in 100 μL, 5 μL of 20 μg/mL test compound solution per well, 5 μL of 400 ng/mL VEGF solution, WST-8 three days after VEGF, absorbance at 450 nm, control 1.0% DMSO; for inhibition at 20 µg/mL (stock): Homo sapiens, 72 h, read-out: Cell proliferation inhibition rate (%). Here is the method:
In order to find the usefulness of the compound of the present invention, a test for inhibitory effects of the compound of the present invention on cell proliferation was carried out using a VEGF-induced HUVEC proliferation reaction evaluation system (HUVEC: human umbilical vein endothelial cells), which is a method of evaluating antiangiogenic effects of drugs, and the antiangiogenic effects of the compound were evaluated.
As one of the widely used methods of evaluating antiangiogenic effects of drugs, a cell proliferation inhibitory action test using a VEGF-induced HUVEC proliferation reaction evaluation system has been reported in Cancer Res., 59, 99-106 (1999). According to the method described in the above-mentioned document, a cell proliferation inhibitory action test of the compounds of the present invention was carried out, and the cell proliferation inhibition rate was calculated. Then, the antiangiogenic effect of each of the compounds of the present invention was evaluated using the obtained rate as an index.
Each test compound was dissolved in dimethyl sulfoxide (hereinafter abbreviated as DMSO), and the obtained solution was diluted with a commercially available phosphate buffer solution (hereinafter abbreviated as PBS), whereby a 20 μg/mL test compound solution was prepared.
HUVEC was suspended in F12K medium containing 0.5% fetal bovine serum (hereinafter abbreviated as FBS), whereby a 2×10^4 cells/mL HUVEC suspension was prepared.
VEGF was dissolved in PBS containing 0.1% bovine serum albumin, and the obtained solution was diluted with F12K medium containing 0.5% FBS, whereby a 400 ng/mL VEGF solution was prepared.
1) The HUVEC suspension was inoculated in an amount of 100 μL into each well of a 96-well plate coated with type I collagen (2×10^3 cells per well).
2) One day after the inoculation, the test compound solution was added in an amount of 5 μL per well.
3) One hour after the addition of the test compound solution, the VEGF solution was added in an amount of 5 μL per well.
4) Three days after the addition of the VEGF solution, WST-8 assay reagent (Dojin Chemical Co., Ltd.) was added in an amount of 10 μL per well.
5) After 3 hours, the above-mentioned plate was attached to an absorptiometer (Multilabel Counter ARVO), and an absorbance at 450 nm of suspension in each well (hereinafter referred to as a test compound suspension) was measured.
6) A test was carried out in the same manner as in the above 1) to 5) except that 1.0% DMSO was used instead of the test compound solution. The result was used as a control.
Incubation was carried out under conditions of 37° C., 5% carbon dioxide and […] in an incubator throughout the above-mentioned test steps.
The cell proliferation inhibition rate (%), which was used as an index of an antiangiogenic effect, was calculated using the following calculation equation.
(Calculation Equation) Cell proliferation inhibition rate (%)=100−{(Absorbance of test compound suspension−A)/(absorbance of control−A)}×100 A: Absorbance of only cell suspension (cells+medium) (Test Results and Discussion)
In general terms: Tetrazolium assays rely on reduction of a dye to a coloured formazan, in cell work by metabolically active cells.

Consider `O=C(Nc1ccc(OC(F)(F)F)cc1)c1cccnc1SCc1ccnc2ccccc12` [Compound 2-1, 2-(Quinolin-4-ylmethylthio)-N-(4-trifluoromethoxyphenyl)pyridine-3-carboxamide], for which the inhibition at 20 µg/mL (stock) was determined as 100%.

Take `O=C(Nc1ccc(Cl)cc1)c1cccnc1SCc1ccnc2ccccc12` [Compound 1-1, N-(4-Chlorophenyl)-2-(quinolin-4-ylmethylthio)pyridine-3-carboxamide]: the inhibition at 20 µg/mL (stock) is 100%. Still for that read-out and setting: then `Cc1cc(C)cc(NC(=O)c2sccc2SCc2ccnc3ccccc23)c1` [Compound 2-8, N-(3,5-Dimethylphenyl)-3-(quinolin-4-ylmethylthio)thiophene-2-carboxamide], with 100%; and `COc1cc2nccc(CSc3ncccc3C(=O)Nc3cc(C)cc(C)c3)c2cc1OC` [Compound 1-30, 2-(6,7-Dimethoxyquinolin-4-ylmethylthio)-N-(3,5-dimethylphenyl)pyridine-3-carboxamide], with 70%; and `COc1ccc(CCNC(=O)c2ccccc2SCc2ccnc3ccccc23)cc1` [Compound 1-26, N-[2-(4-Methoxyphenyl)ethyl]-2-(quinolin-4-ylmethylthio)benzamide], with 97%. Same read-out and setting: for `Cc1cc(C)cc(NC(=O)c2cccnc2SCc2ccnc3ccccc23)c1` [Compound 1-3, N-(3,5-Dimethylphenyl)-2-(quinolin-4-ylmethylthio)pyridine-3-carboxamide] the value was 100%; for `Cc1cc(C)cc(NC(=O)c2cccnc2SCc2ccc3ncccc3c2)c1` [Compound 1-36, N-(3,5-Dimethylphenyl)-2-(quinolin-6-ylmethylthio)pyridine-3-carboxamide], 100%. Same read-out and setting: for `O=C(Nc1cccc(Cl)c1)c1cccnc1SCc1ccc2ncccc2c1` [Compound 1-38, N-(3-Chlorophenyl)-2-(quinolin-6-ylmethylthio)pyridine-3-carboxamide] the value was 100%. For the compound `Cc1cccc(NC(=O)c2cccnc2SCc2ccnc3cc(Cl)c(Cl)cc23)c1` [Compound 1-33, 2-(6,7-Dichloroquinolin-4-ylmethylthio)-N-(3-methylphenyl)pyridine-3-carboxamide], the inhibition at 20 µg/mL (stock) was determined as 100%. For `Cc1cc(C)cc(NC(=O)c2cccnc2SCc2cc[n+]([O-])c3ccccc23)c1` [Compound 1-35, N-(3,5-Dimethylphenyl)-2-(1-oxoquinolin-4-ylmethylthio)pyridine-3-carboxamide], the “Cell proliferation inhibition rate (%)” value is 100%. As to `Cc1cc(C)cc(NC(=O)c2ccccc2SCc2ccnc3ccccc23)c1` [Compound 2-2, N-(3,5-Dimethylphenyl)-2-(quinolin-4-ylmethylthio)benzamide], the inhibition at 20 µg/mL (stock) is 100%. Still for that read-out and setting: for `Cc1cc(C)cc(NC(=O)c2cccnc2SCc2cnc3ccccc3c2)c1` [Compound 1-39, N-(3,5-Dimethylphenyl)-2-(quinolin-3-ylmethylthio)pyridine-3-carboxamide] the value was 100%; for `COc1cc2nccc(CSc3ncccc3C(=O)Nc3cccc(Cl)c3)c2cc1OC` [Compound 1-31, N-(3-Chlorophenyl)-2-(6,7-dimethoxyquinolin-4-ylmethylthio)pyridine-3-carboxamide], 88%; for `O=C(Nc1ccc(Cl)cc1)c1ccccc1SCc1ccnc2ccccc12` [Compound 2-3, N-(4-Chlorophenyl)-2-(quinolin-4-ylmethylthio)benzamide], 100%.
